Test results: patent US20250206722A1, “SMALL MOLECULE INHIBITORS OF TEA DOMAIN FAMILY MEMBERS” (The Scripps Research Institute, priority 2022, published 2025)

How the values were obtained:
NCI-H226 cells = assay: NCI-H226 proliferation assay (in house); assay type: cell-based; conditions: Homo sapiens, 120 h, 5 days, Cell TiterGlo, 20-point 1:2 dilution from 20 μM
Procedure: NCI-H226 Proliferation Assay
NCI-H226 cells were obtained from American Type Culture Collection (ATCC, CRL-5826) and cultured in RPMI 1640 with L-glutamine (Corning, 10-040-CV) supplemented with 10% fetal bovine serum (Gibco, 10438-026) and 1% penicillin-streptomycin (Gibco, 15070063). Cells were trypsinized, resuspended in growth medium, and diluted to a concentrated of 10,000 cells/mL. 500 cells, 50 μL of cell suspension, per well were then plated in a white 384-well plate (Corning) and incubated at 37° C., 5% CO2. After 24 hours incubation, 100 nL of test compounds in DMSO, 20-point 1:2 dilution starting from 20 μM (final concentration) in triplicate, were transferred to each well using an Agilent Bravo instrument outfitted with a pintool head. Cells were incubated at 37° C., 5% CO2 for 5 days followed by the addition of 30 μL of Cell TiterGlo (Promega; diluted 1:6 in water) to each well and luminescence values recorded using an EnVision plate reader. […]

[1] = tested on: transcriptional activity of TEADs; assay: TEAD reporter assay (MCF7 TEAD-LUC reporter cells); assay type: cell-based; conditions: Homo sapiens, 24 hours, BrightGlo luminescence
Procedure: MCF7 TEAD-LUC reporter cells were obtained from BPS Bioscience, Inc. and cultured in DMEM medium (Corning, 10-013-CV) supplemented with 10% fetal bovine serum (Gibco, 10438-026), 1% penicillin-streptomycin (Gibco, 15070063), 1% non-essential amino acids (Gibco, 15070063), and 10 μg/mL insulin (Sigma, 10516). Cells were trypsinized, resuspended in growth medium, and diluted to a concentrated of 100,000 cells/mL. 5,000 cells, 50 μL of cell suspension, per well were then plated in a white 384-well plate (Corning) and incubated at 37° C., 5% CO2. After 24 hours incubation, 100 nL of test compounds in DMSO, 20-point 1:2 dilution starting from 20 μM (final concentration) in triplicate, were transferred to each well using an Agilent Bravo instrument outfitted with a pintool head. Cells were incubated at 37° C., 5% CO2 for 24 hours followed by the addition of 30 μL of BrightGlo (Promega; diluted 1:3 in water) to each well and luminescence values recorded using an EnVision plate reader.
The in vitro assay results of the compounds in the present invention were included in Table 1. The compounds described herein, inhibited the transcriptional activity of TEADs, as assessed by decreased luminance from a TEAD reporter cell line (MCF7 TEAD-LUC) in response to compound treatment.

SMILES	IC50 (NCI-H226 cells)	IC50 [1]
C=CC(=O)N1CC=C(c2nccnc2Oc2ccc(C(F)(F)F)nc2)CC1 [Example 84, 1-(4-(3-((6-(trifluoromethyl)pyridin-3-yl)oxy)pyrazin-2-yl)-3,6-dihydropyridin-1(2H)-yl)prop-2-en-1-one]	0.0173 µM	1.4 nM
C=C(CN1CC(c2nccnc2Oc2ccc(C(F)(F)F)nc2)C1)C(=O)O [Example 86, 2-((3-(3-((6-(trifluoromethyl)pyridin-3-yl)oxy)pyrazin-2-yl)azetidin-1-yl)methyl)acrylic acid]	3.01 µM	31000 nM
C=CC(=O)N1CCN(c2nccnc2C(=O)c2ccc(C(F)(F)F)cc2)CC1 [Example 95, 1-(4-(3-(4-(trifluoromethyl)benzoyl)pyrazin-2-yl)piperazin-1-yl)prop-2-en-1-one]	0.012 µM	1.3 nM
C=CC(=O)N1CCN(c2nccnc2C(O)c2ccc(C(F)(F)F)cc2)CC1 (stereo not shown) [Example 97, 1-(4-(3-(hydroxy(4-(trifluoromethyl)phenyl)methyl)pyrazin-2-yl)piperazin-1-yl)prop-2-en-1-one]	0.019 µM	3 nM
C=CC(=O)N1CCN(c2nccnc2Cc2ccc(C(F)(F)F)cc2)CC1 [Example 98, 1-(4-(3-(4-(trifluoromethyl)benzyl)pyrazin-2-yl)piperazin-1-yl)prop-2-en-1-one]	0.012 µM	0.9 nM
C=CC(=O)N1CCN(c2nccnc2C(=O)NC2CCC2)CC1 [Example 99, 3-(4-acryloylpiperazin-1-yl)-N-cyclobutylpyrazine-2-carboxamide]	2.08 µM	142 nM
C=CC(=O)N1CCN(c2nccnc2C(=O)NC2CC(F)(F)C2)CC1 [Example 100, 3-(4-acryloylpiperazin-1-yl)-N-(3,3-difluorocyclobutyl)pyrazine-2-carboxamide]	1.18 µM	74 nM
C=CC(=O)N1CCN(c2nccnc2C(=O)N2CC3(CC(C(F)(F)F)C3)C2)CC1 [Example 101, 1-(4-(3-(6-(trifluoromethyl)-2-azaspiro[3.3]heptane-2-carbonyl)pyrazin-2-yl)piperazin-1-yl)prop-2-en-1-one]	3.76 µM	13.4 nM
C=CC(=O)N1CCN(c2nccnc2C(=O)NC2CCCC2)CC1 [Example 102, 3-(4-acryloylpiperazin-1-yl)-N-cyclopentylpyrazine-2-carboxamide]	1.6 µM	39 nM
C=CC(=O)N1CCN(c2nccnc2C(=O)N2CCC(C(F)(F)F)CC2)CC1 [Example 103, 1-(4-(3-(4-(trifluoromethyl)piperidine-1-carbonyl)pyrazin-2-yl)piperazin-1-yl)prop-2-en-1-one]	> 20 µM	166 nM
C=CC(=O)N1CCN(c2nccnc2C(=O)N2CCC(F)(F)CC2)CC1 [Example 104, 1-(4-(3-(4,4-difluoropiperidine-1-carbonyl)pyrazin-2-yl)piperazin-1-yl)prop-2-en-1-one]	2.74 µM	2220 nM
C=CC(=O)N1CCN(c2ncc(O)nc2Nc2ccc(C(F)(F)F)cc2)CC1 [Example 111, 1-(4-(5-hydroxy-3-((4-(trifluoromethyl)phenyl)amino)pyrazin-2-yl)piperazin-1-yl)prop-2-en-1-one]	5.64 µM	239 nM
C=C(F)C(=O)N1CCN(c2nc(C)c(C)nc2Nc2ccc(C(F)(F)F)nc2)CC1 [Example 114, 1-(4-(5,6-dimethyl-3-((6-(trifluoromethyl)pyridin-3-yl)amino)pyrazin-2-yl)piperazin-1-yl)-2-fluoroprop-2-en-1-one]	0.072 µM	4.4 nM
C=CC(=O)N1CCN(c2cnncc2Nc2ccc(C(F)(F)F)cc2)CC1 [Example 122, 1-(4-(5-((4-(trifluoromethyl)phenyl)amino)pyridazin-4-yl)piperazin-1-yl)prop-2-en-1-one]	> 10 µM	6.8 nM
C=C(F)C(=O)N1CC=C(c2cnc(C)nc2Oc2ccc(C(F)(F)F)nc2)CC1 [Example 130, 2-fluoro-1-(4-(2-methyl-4-((6-(trifluoromethyl)pyridin-3-yl)oxy)pyrimidin-5-yl)-3,6-dihydropyridin-1(2H)-yl)prop-2-en-1-one]	1.33 µM	1.1 nM
C=CC(=O)N1CCC(c2cnc(C)nc2Oc2ccc(C(F)(F)F)nc2)CC1 [Example 131, 1-(4-(2-methyl-4-((6-(trifluoromethyl)pyridin-3-yl)oxy)pyrimidin-5-yl)piperidin-1-yl)prop-2-en-1-one]	2.25 µM	598 nM
C=C(F)C(=O)N1CCC(c2cnc(C)nc2Oc2ccc(C(F)(F)F)nc2)CC1 [Example 132, 2-fluoro-1-(4-(2-methyl-4-((6-(trifluoromethyl)pyridin-3-yl)oxy)pyrimidin-5-yl)piperidin-1-yl)prop-2-en-1-one]	4.31 µM	451 nM
C=CC(=O)N1CCN(c2nc(OC)ncc2Nc2ccc(C(F)(F)F)cc2)CC1 [Example 133, 1-(4-(2-methoxy-5-((4-(trifluoromethyl)phenyl)amino)pyrimidin-4-yl)piperazin-1-yl)prop-2-en-1-one]	0.722 µM	16.5 nM
C=C(F)C(=O)N1CCN(c2ncccc2Nc2ccc(C(F)(F)F)nc2)CC1 [Example 135, 2-fluoro-1-(4-(3-((6-(trifluoromethyl)pyridin-3-yl)amino)pyridin-2-yl)piperazin-1-yl)prop-2-en-1-one]	1.67 µM	410 nM
C=CC(=O)N1CC=C(c2ncccc2Oc2ccc(C(F)(F)F)nc2)CC1 [Example 136, 1-(3-((6-(trifluoromethyl)pyridin-3-yl)oxy)-3′,6′-dihydro-[2,4′-bipyridin]-1′(2′H)-yl)prop-2-en-1-one]	0.341 µM	66 nM
C=C(F)C(=O)N1CC=C(c2ncccc2Oc2ccc(C(F)(F)F)nc2)CC1 [Example 137, 2-fluoro-1-(3-((6-(trifluoromethyl)pyridin-3-yl)oxy)-3′,6′-dihydro-[2,4′-bipyridin]-1′(2′H)-yl)prop-2-en-1-one]	0.243 µM	22 nM
C=C(F)C(=O)N1CCC(c2ncccc2Oc2ccc(C(F)(F)F)nc2)CC1 [Example 139, 2-fluoro-1-(4-(3-((6-(trifluoromethyl)pyridin-3-yl)oxy)pyridin-2-yl)piperidin-1-yl)prop-2-en-1-one]	7.03 µM	3240 nM
C=CC(=O)N1CCN(c2ncccc2C(=O)c2ccc(C(F)(F)F)cn2)CC1 [Example 140, 1-(4-(3-(5-(trifluoromethyl)picolinoyl)pyridin-2-yl)piperazin-1-yl)prop-2-en-1-one]	11.1 µM	8.6 nM
C=CC(=O)N1CCN(c2ncccc2C(=O)c2ccc(C(F)(F)F)nc2)CC1 [Example 141, 1-(4-(3-(6-(trifluoromethyl)nicotinoyl)pyridin-2-yl)piperazin-1-yl)prop-2-en-1-one]	0.5 µM	7.5 nM
C=CC(=O)N1CCN(c2ncccc2C(O)c2ccc(C(F)(F)F)nc2)CC1 (stereo not shown) [Example 142, 1-(4-(3-(hydroxy(6-(trifluoromethyl)pyridin-3-yl)methyl)pyridin-2-yl)piperazin-1-yl)prop-2-en-1-one]	7.28 µM	2.3 nM
C=C(F)C(=O)N1CCN(c2cccnc2Nc2ccc(C(F)(F)F)nc2)CC1 [Example 144, 2-fluoro-1-(4-(2-((6-(trifluoromethyl)pyridin-3-yl)amino)pyridin-3-yl)piperazin-1-yl)prop-2-en-1-one]	0.031 µM	8.1 nM
